Data as given in patent publication US20260217677A1, “ORGANIC COMPOUNDS AS NLRP3 INHIBITORS” (KODIAK SCIENCES, INC., priority 2023, published 2026).

tested on: IL-1β release in U937 cells after NLRP3 activation; assay: IL-1β release inhibition in U937 cells (MSD V-Plex); settings: Homo sapiens, U-937, read-out: IL-1β IC50, Table 3; PMA-differentiated U937 cells, 1 μg/mL LPS 3 h, compound 30 min, 10 mM nigericin 1 h

SMILES	IC50
Cc1cc(N[C@@H]2CCCN(C3CCN(C(=O)N4CC(O)C4)CC3)C2)nnc1-c1ccc(C(F)(F)F)cc1O [Example 40, (R)-(3-((6-(2-Hydroxy-4-(trifluoromethyl)phenyl)-5-methylpyridazin-3-yl)amino)-[1,4′-bipiperidin]-1′-yl) (3-hydroxyazetidin-1-yl)methanone]	< 5 nM
O=C(CN1CCC[C@@H](Nc2nnc(-c3ccc(C(F)(F)F)cc3O)c3c2CNC3)C1)N1CCC(O)CC1 [Example 57, (R)-2-(3-((4-(2-Hydroxy-4-(trifluoromethyl)phenyl)-6,7-dihydro-5H-pyrrolo[3,4-d]pyridazin-1-yl)amino)piperidin-1-yl)-1-(4-hydroxypiperidin-1-yl)ethan-1-one]	50 to 500 nM
O=C(CN1CCC[C@@H](Nc2nnc(-c3ccc(C(F)(F)F)cc3O)c3c2COC3)C1)N1CCC2(CC1)CC(O)C2 [Compound 24, (R)-2-(3-((4-(2-Hydroxy-4-(trifluoromethyl)phenyl)-5,7-dihydrofuro[3,4-d]pyridazin-1-yl)amino)piperidin-1-yl)-1-(2-hydroxy-7-azaspiro[3.5]nonan-7-yl)ethan-1-one]	5 to 50 nM
Cc1c(-c2ccc(C(F)(F)F)cc2O)nnc2c1CCCN2[C@@H]1CCCN(CC(=O)N2CCC3(CC2)CC(O)C3)C1 [Example 43, 2-[(3R)-3-{3-[2-Hydroxy-4-(trifluoromethyl)phenyl]-4-methyl-5H,6H,7H-pyrido[2,3-c]pyridazin-8-yl}piperidin-1-yl]-1-{2-hydroxy-7-azaspiro[3.5]nonan-7-yl}ethanone]	50 to 500 nM
O=C(CN1CCC[C@@H](Nc2nnc(-c3ccc(C(F)(F)F)cc3O)c3c2COC3)C1)N1C[C@@H](O)[C@H](F)C1 [Example 29, 1-((3R,4R)-3-Fluoro-4-hydroxypyrrolidin-1-yl)-2-((R)-3-((4-(2-hydroxy-4-(trifluoromethyl)phenyl)-5,7-dihydrofuro[3,4-d]pyridazin-1-yl)amino)piperidin-1-yl)ethan-1-one]	5 to 50 nM
Cc1c(N[C@@H]2CCCN(CC(=O)N3CCC(O)CC3)C2)nnc(-c2ccc(C(F)(F)F)cc2O)c1C [Example 30, (R)-2-(3-((6-(2-Hydroxy-4-(trifluoromethyl)phenyl)-4,5-dimethylpyridazin-3-yl)amino)piperidin-1-yl)-1-(4-hydroxypiperidin-1-yl)ethan-1-one]	5 to 50 nM
Cc1cc(N[C@@H]2CCCN(CC(=O)N3CCC(O)CC3)C2)nnc1-c1ccc2sccc2c1O [Example 49, 2-[(3R)-3-{[6-(4-hydroxy-1-benzothiophen-5-yl)-5-methylpyridazin-3-yl]amino}piperidin-1-yl]-1-(4-hydroxypiperidin-1-yl)ethanone]	< 5 nM
O=C(CN1CCC[C@@H](Nc2nnc(-c3ccc(C(F)(F)F)cc3O)c3c2COC3)C1)N1C[C@H](O)[C@@H](F)C1 [Example 28, 1-((3S,4S)-3-Fluoro-4-hydroxypyrrolidin-1-yl)-2-((R)-3-((4-(2-hydroxy-4-(trifluoromethyl)phenyl)-5,7-dihydrofuro[3,4-d]pyridazin-1-yl)amino)piperidin-1-yl)ethan-1-one]	5 to 50 nM
Cc1cc(-c2ccc(C(F)(F)F)cc2O)nnc1N[C@@H]1CCCN(CC(=O)N2CC[C@H](O)C2)C1 [Example 31, 2-((R)-3-((6-(2-Hydroxy-4-(trifluoromethyl)phenyl)-4-methylpyridazin-3-yl)amino)piperidin-1-yl)-1-((S)-3-hydroxypyrrolidin-1-yl)ethan-1-one]	50 to 500 nM

Other lines, results leading:

IC50	SMILES
5 to 50 nM	Cc1cc(N[C@@H]2CCCN(CCN3CCC(O)CC3)C2)nnc1-c1ccc(C(F)(F)F)cc1O [Compound 7, (R)-1-(2-(3-((6-(2-Hydroxy-4-(trifluoromethyl)phenyl)-5-methylpyridazin-3-yl)amino)piperidin-1-yl)ethyl)piperidin-4-ol]
< 5 nM	Cc1cc(N[C@@H]2CCCN(C3CCC(O)CC3)C2)nnc1-c1ccc(C(F)(F)F)cc1O (single isomer, unassigned) [Example 53]
5 to 50 nM	Cc1cc(N[C@@H]2CCCN(C(=O)C3CC4(CC(O)C4)C3)C2)nnc1-c1ccc(C(F)(F)F)cc1O (stereo partly drawn) [Example 61, (R)-(3-((6-(2-Hydroxy-4-(trifluoromethyl)phenyl)-5-methylpyridazin-3-yl)amino)piperidin-1-yl) (6-hydroxyspiro[3.3]heptan-2-yl)methanone]

same assay, conditions: Homo sapiens, U-937, read-out: IL-1β IC50, Table 4; PMA-differentiated U937 cells, 1 μg/mL LPS 3 h, compound 30 min, 10 mM nigericin 1 h

SMILES	IC50
Oc1cc(C(F)(F)F)ccc1-c1nnc(N[C@@H]2CCCN(C3CCNCC3)C2)c2c1COC2 [Example 100, (R)-2-(4-([1,4′-Bipiperidin]-3-ylamino)-5,7-dihydrofuro[3,4-d]pyridazin-1-yl)-5-(trifluoromethyl)phenol]	5 to 50 nM
Cc1cc(C(F)(F)F)cc(O)c1-c1ccc(N[C@@H]2CCCN(C3CNC3)C2)nn1 [Example 88, (R)-2-(6-((1-(Azetidin-3-yl)piperidin-3-yl)amino)pyridazin-3-yl)-3-methyl-5-(trifluoromethyl)phenol]	5 to 50 nM
Oc1cc(C(F)(F)F)ccc1-c1nnc(N[C@@H]2CCCN(C3CNC3)C2)c2c1CCC2 [Example 80, (R)-2-(4-((1-(Azetidin-3-yl)piperidin-3-yl)amino)-6,7-dihydro-5H-cyclopenta[d]pyridazin-1-yl)-5-(trifluoromethyl)phenol]	5 to 50 nM
Oc1cc(F)ccc1-c1nnc(N[C@@H]2CCCN(C3CNC3)C2)c2c1CCC2 [Example 81, (R)-2-(4-((1-(Azetidin-3-yl)piperidin-3-yl)amino)-6,7-dihydro-5H-cyclopenta[d]pyridazin-1-yl)-5-fluorophenol]	50 to 500 nM

The remaining lines, values ahead:

IC50	SMILES
5 to 50 nM	Cc1cc(N[C@@H]2CCCN(CC(=O)N3CCNCC3)C2)nnc1-c1ccc(C(F)(F)F)cc1O [Example 103, (R)-2-(3-((6-(2-Hydroxy-4-(trifluoromethyl)phenyl)-5-methylpyridazin-3-yl)amino)piperidin-1-yl)-1-(piperazin-1-yl)ethan-1-one]
5 to 50 nM	Cc1cc(N[C@@H]2CCCN(C3CCNCC3)C2)nnc1-c1ccc(C(F)(F)F)cc1O [Example 85, (R)-2-(6-([1,4′-Bipiperidin]-3-ylamino)-4-methylpyridazin-3-yl)-5-(trifluoromethyl)phenol]
5 to 50 nM	Cc1cc(N[C@@H]2CCCN(CCNCC3COC3)C2)nnc1-c1ccc(C(F)(F)F)cc1O [Example 108, (R)-2-(4-Methyl-6-((1-(2-((oxetan-3-ylmethyl)amino)ethyl)piperidin-3-yl)amino)pyridazin-3-yl)-5-(trifluoromethyl)phenol]
5 to 50 nM	Cc1cc(N[C@@H]2CCCN(CCNCC3CCS(=O)(=O)CC3)C2)nnc1-c1ccc(C(F)(F)F)cc1O [Example 109, (R)-4-(((2-(3-((6-(2-Hydroxy-4-(trifluoromethyl)phenyl)-5-methylpyridazin-3-yl)amino)piperidin-1-yl)ethyl)amino)methyl)tetrahydro-2H-thiopyran 1,1-dioxide]
50 to 500 nM	Cc1cc(N[C@@H]2CCCN(CC(=O)NC3CCNCC3)C2)nnc1-c1ccc(C(F)(F)F)cc1O [Example 95, (R)-2-(3-((6-(2-Hydroxy-4-(trifluoromethyl)phenyl)-5-methylpyridazin-3-yl)amino)piperidin-1-yl)-N-(piperidin-4-yl)acetamide]

same assay, conditions: read-out: IL-1β IC50; Table 3; PMA-differentiated U937 cells, 1 μg/mL LPS 3 h, compound 30 min, 10 mM nigericin 1 h

IC50	SMILES
< 5 nM	Cc1cc(N[C@@H]2CCCN(C3CCC(O)CC3)C2)nnc1-c1ccc(C(F)(F)F)cc1O (single isomer, unassigned) [Example 54]
< 5 nM	Cc1cc(N[C@@H]2CCCN(C(=O)C3CCCC(O)C3)C2)nnc1-c1ccc(C(F)(F)F)cc1O (single isomer, unassigned) [Example 70 Fraction B]
